# In patent US9271965B2, “Crystalline forms of (R)-3-[N-(3'-chlorobiphenyl-4-ylmethyl)-N'-(3-hydroxyisoxazole-5-carbonyl)hydrazino]-2-hydroxyproprionic acid isopropyl ester” (Theravance Biopharma R&D IP, LLC, priority 2012, dated 2016):
# Columns and labels:
# Type in all cases: physicochemical
# [1] = Dynamic moisture sorption (DMS) assessment; conditions: for solid form (PXRD) after moisture sorption-desorption: PXRD before and after the DMS experiment; for hygroscopicity: from DMS profile, Form 1 per European Pharmacopoeia Technical Guide classification; for hysteresis between sorption and desorption: two cycles of water sorption and desorption
# Method: In one embodiment, the crystalline neutral monohydrate Form 1 is characterized by the DMS profile in FIG. 4. Samples of Form 1 were subjected to isothermal moisture sorption analysis at 25° C. […] The step-like profile at 40-60% RH may indicate capillary condensation. At 90% RH, the total moisture uptake was ˜0.5%.
# In one embodiment, the crystalline neutral Form 2 is characterized by the DMS profile in FIG. 11. Samples of Form 2 were subjected to isothermal moisture sorption analysis at 25° C. With increasing relative humidity, the amount of water adsorbed by the solid increased gradually up to 75% RH and steeply between 75%-90% RH […].
# In one embodiment, the crystalline neutral anhydrous Form 3 is characterized by the DMS profile in FIG. 29. The DMS thermogram of Form 3 is similar to that of Form 2 (FIG. 11). […] The sample, however, loses the adsorbed water during desorption segment and returns to an anhydrous state. Overlay of the PXRD patterns of the sample before and after it was subjected the moisture sorption-desorption experiment is shown in FIG. 30. […] Form 3, like Form 2, is hygroscopic.
# In one embodiment, the crystalline neutral anhydrous Form 4 is characterized by the DMS profile in FIG. 37. […] Form-4 is non-hygroscopic. […] Form 4, which is obtained from the monohydrate Form 1, is non-hygroscopic, whereas Form 3, which is obtained from anhydrous Form 2, is hygroscopic. […] Overlay of the PXRD patterns of the sample before and after it was subjected the moisture sorption-desorption experiment is shown in FIG. 30.
# Moisture sorption and desorption data on the crystalline compounds were collected on a VTI SGA-100 Vapor Sorption Analyzer. Sorption and desorption data were collected over a range of 5% to 90% relative humidity (RH) at 5% RH intervals. Equilibrium criteria used for analysis were less than 0.01% weight change in 5 minutes, with a maximum equilibration time of three hours if the weight criterion was not met. Samples were subjected to initial drying or desorption steps to 5% RH followed by the sorption-desorption cycle. Data were collected at a time interval of two minutes or 0.01% change in weight.
# [2] = Exposure of Form 2 to 84% relative humidity, analysis by PXRD; conditions: 84% RH for seven days
# From the text: In one experiment, a sample of Form 2 was exposed to 84% RH for seven days. […] This experiment established that Form 2 is metastable to the monohydrate Form 1 in high relative humidities (>75% RH). Accordingly, in another embodiment, the crystalline neutral monohydrate Form 1 can be prepared by (a′) exposing the crystalline neutral Form 2 to high humidity; and in one embodiment exposing Form 2 to about >75% relative humidity, typically for about 5-7 days.
# [3] = Slurry of Form 2 in water, analysis by PXRD; conditions: slurried in water (e.g., deionized water) for five days
# From the text: This experiment established that Form 2 is metastable to the monohydrate Form 1 in solutions containing water. Thus, in yet another embodiment, the crystalline neutral monohydrate Form 1 can be prepared by (a″) reslurrying the crystalline neutral Form 2 in water or an aqueous solution; (b″) heating then cooling the resulting slurry; (c″) optionally stirring or sonicating to complete dissolution; and allowing solids to form and isolating the solids to yield the crystalline neutral monohydrate Form 1. […] Step (a″) is typically conducted by first treating Form 2 with methanol, and subsequently adding water as an anti-solvent to form a slurry. Step (b″) generally involves heating the slurry to a temperature within the range of about 55-75° C., and in one embodiment to about 60° C. The cooling in step (b″) is generally to about room temperature.
# [4] = Heat induced decomposition by DSC and TGA; conditions: 10° C. per minute, nitrogen purge
# Method: The crystalline compounds were subjected to temperature scan using a TA Instruments Q100 differential scanning calorimeter equipped with a refrigerated cooling system. Samples were loaded into aluminum pans with crimped lids. In most cases, the samples were heated to 250° C. at a rate of 10° C. per minute under a purge of nitrogen gas. The data acquisition was controlled by Thermal Advantage software Release 5.1.2 and the data were analyzed with Universal Analysis 2000 software (version 4.7A).
# The crystalline compounds were subjected to temperature scan using a TA Instruments Q500 thermal gravimetric analyzer. Samples were loaded into platinum pans and heated to 250° C. at a rate of 10° C. per minute under a purge of nitrogen gas. The data acquisition was controlled by Thermal Advantage software Release 5.1.2 and the data were analyzed with Universal Analysis 2000 software (version 4.7A).
# [5] = Retention of lattice water under ambient conditions and under high vacuum
Structure (SMILES),"water taken up between 75% RH and 90% RH ([1]; DMS, between 75% RH and 90% RH)",solid form (PXRD) after moisture sorption-desorption [1],hygroscopicity [1],"total quantity of water taken up in the DMS experiment ([1]; DMS, 25° C.)",hysteresis between sorption and desorption [1],solid form after exposure to high humidity [2],solid form after slurrying in water [3],heat induced decomposition temperature [4] [°C],"total moisture uptake ([1]; isothermal moisture sorption at 25° C., at 90% RH) [%]",loss of lattice water ([5]; exposed to ambient conditions for more than a month),loss of lattice water ([5]; placed in high vacuum for more than 24 hours),"water taken up when exposed up to 90% RH ([1]; DMS, up to 90% RH)"
"CC(C)OC(=O)[C@H](O)CN(Cc1ccc(-c2cccc(Cl)c2)cc1)NC(=O)c1cc(O)no1 [Form 3, (R)-3-[N-(3′-chlorobiphenyl-4-ylmethyl)-N′-(3-hydroxyisoxazole-5-carbonyl)hydrazino]-2-hydroxypropionic acid isopropyl ester]",about 3.5%,returns to the same solid form after moisture sorption and desorption,hygroscopic,–,–,–,–,–,–,–,–,–
"CC(C)OC(=O)[C@H](O)CN(Cc1ccc(-c2cccc(Cl)c2)cc1)NC(=O)c1cc(O)no1 [Form 2, (R)-3-[N-(3′-chlorobiphenyl-4-ylmethyl)-N′-(3-hydroxyisoxazole-5-carbonyl)hydrazino]-2-hydroxypropionic acid isopropyl ester]",–,showed a PXRD pattern that matched with the starting material,hygroscopic,3.5-3.6%,showed distinct hysteresis,converts to Form 1 at high humidities,PXRD pattern consistent with Form 1,> 175,–,–,–,–
"CC(C)OC(=O)[C@H](O)CN(Cc1ccc(-c2cccc(Cl)c2)cc1)NC(=O)c1cc(O)no1 [Form 1, (R)-3-[N-(3′-chlorobiphenyl-4-ylmethyl)-N′-(3-hydroxyisoxazole-5-carbonyl)hydrazino]-2-hydroxypropionic acid isopropyl ester]",–,did not show any change in their PXRD pattern,slightly hygroscopic,–,did not show hysteresis,–,–,> 175,~0.5,did not lose lattice water,did not lose lattice water,–
"CC(C)OC(=O)[C@H](O)CN(Cc1ccc(-c2cccc(Cl)c2)cc1)NC(=O)c1cc(O)no1 [Form 4, (R)-3-[N-(3′-chlorobiphenyl-4-ylmethyl)-N′-(3-hydroxyisoxazole-5-carbonyl)hydrazino]-2-hydroxypropionic acid isopropyl ester]",–,retained its solid-state structure,non-hygroscopic,–,no hysteresis,–,–,–,–,–,–,less than 0.1 % by weight
